The assay addresses C-X-C chemokine receptor type 6 (Homo sapiens) (UniProt O00574). The assay can be described thus: potency against CXCR6 with APJ panel – cell-based, beta-arrestin, DiscoveRx, uHTS hits, dose response (AID 624129). The conditions noted are these: CXCR6 beta-arrestin (DiscoveRx) antagonist cell assay; for outcome: CXCR6, dose range 1; for inhibition: CXCR6, run 2, dose range 1, at 79 µM (top of the series).

[1] abbreviates: CXCR6, dose range 1, mean IC50 across replicates.

Activity calls are given as the source filed them. No rule for the calls is given here.

C-X-C chemokine receptor type 6 (Homo sapiens), sequence (O00574 whole entry, looked up): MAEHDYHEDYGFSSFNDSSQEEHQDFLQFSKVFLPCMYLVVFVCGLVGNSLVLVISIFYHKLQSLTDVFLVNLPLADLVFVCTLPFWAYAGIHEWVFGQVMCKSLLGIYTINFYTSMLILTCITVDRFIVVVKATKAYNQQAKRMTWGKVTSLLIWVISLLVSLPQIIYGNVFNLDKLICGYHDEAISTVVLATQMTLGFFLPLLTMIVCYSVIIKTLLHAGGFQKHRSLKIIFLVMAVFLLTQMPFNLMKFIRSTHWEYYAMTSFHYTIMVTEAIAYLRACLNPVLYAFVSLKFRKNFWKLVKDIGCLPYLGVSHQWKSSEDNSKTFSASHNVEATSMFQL

`O=C1C=CC(=O)N1CCCCCCCCCCN1C(=O)C=CC1=O`: the outcome was inactive and the inhibition amounted to 111%. Moreover, under setting [1], the IC50 stood at 16.5 µM. This compound also had a concentration for half-maximal inhibition (IC50) (CXCR6, run 1, dose range 2) of 15.1 µM. Moreover, the half-maximal inhibitory concentration (IC50) (CXCR6, run 2, dose range 2) stood at 18 µM.

Take `CNC(=O)c1nnsc1S(=O)c1ccc(Cl)cc1` (stereo not given): the outcome was inactive and the inhibition was 112%. Under setting [1], this compound registered an IC50 of 13 µM. The compound further had an IC50 (CXCR6, run 1, dose range 2) of 13.2 µM. This compound also gave an IC50 (CXCR6, run 2, dose range 2) of 12.7 µM.

In the case of `COc1cc(N2C(=O)C=CC2=O)ccc1N1C(=O)C=CC1=O`, the result was inactive and the inhibition was 112%. Further, the concentration for half-maximal inhibition (IC50) under setting [1] came out at 15.8 µM. The same compound had an IC50 (CXCR6, run 1, dose range 2) of 12.7 µM. Besides, the IC50 (CXCR6, run 2, dose range 2) is 18.9 µM.

Turning to `Cc1ccc(NC(=S)NNc2ccc(C(=O)O)cc2[N+](=O)[O-])cc1C`, the result was inactive and the inhibition is 62%. This compound also showed a 50% inhibitory concentration (IC50) under setting [1] of 48.9 µM. Further, the IC50 (CXCR6, run 1, dose range 2) came to 48.9 µM. Further, the half-maximal inhibitory concentration (IC50) (CXCR6, run 2, dose range 2) was above 79 µM.

For `CCOC(=O)[C@]12Cc3cc(Cl)ccc3[C@H]1N(C1CCCCC1)C(=O)c1cc(OC)ccc12`, the outcome was inactive and the inhibition was determined as 113%. In addition, under setting [1], the 50% inhibitory concentration (IC50) worked out at 17.8 µM. For the same compound, the IC50 (CXCR6, run 1, dose range 2) was determined as 16.2 µM. Further, the IC50 (CXCR6, run 2, dose range 2) amounted to 19.5 µM.

Regarding `COC(=O)/C=C\C(=O)Nc1cccc([N+](=O)[O-])c1`, the result was inactive and the inhibition worked out at 111%. Under setting [1], the IC50 is 16.6 µM. Also, the IC50 (CXCR6, run 1, dose range 2) was 18 µM. The same compound yielded a 50% inhibitory concentration (IC50) (CXCR6, run 2, dose range 2) of 15.2 µM.

Turning to `CS(=O)(=O)c1ncc(Cl)c(C(=O)Nc2ccc(OC(F)F)cc2)n1`, the result was inactive and the inhibition stood at 113%. Also, the 50% inhibitory concentration (IC50) under setting [1] came out at 13.3 µM. Besides, the IC50 (CXCR6, run 1, dose range 2) was 12.4 µM. Further, the IC50 (CXCR6, run 2, dose range 2) amounted to 14.2 µM.

Take `Cn1cnc([N+](=O)[O-])c1S(=O)(=O)Oc1ccccc1`: the result was inactive and the inhibition came to 111%. This compound gave a 50% inhibitory concentration (IC50) under setting [1] of 19.4 µM. Moreover, the IC50 (CXCR6, run 1, dose range 2) is 16.5 µM. This compound also had an IC50 (CXCR6, run 2, dose range 2) of 22.3 µM.

For `O=C(C=Cc1ccccn1)c1ccccc1O`, the result was inactive and the inhibition was 108%. The half-inhibitory concentration (IC50) under setting [1] came to 22.4 µM. Under “CXCR6, run 1, dose range 2”, this compound came in with a half-inhibitory concentration (IC50) of 13.8 µM. Further, the IC50 (CXCR6, run 2, dose range 2) was found to be 31 µM.

For the compound `O=C(NC(=S)Nc1ccccc1O)c1cccnc1`, the result was inactive and the inhibition was 58.4%. In addition, the IC50 under setting [1] was 30.3 µM. Further, the IC50 (CXCR6, run 1, dose range 2) is 30.3 µM. The half-maximal inhibitory concentration (IC50) (CXCR6, run 2, dose range 2) is above 79 µM.

With `C=CC[C@H](CC(=O)N(CCO)Cc1ccccc1)C(=O)NC[C@H](OC(=O)[C@@H](CC=C)CC(=O)OC(C)(C)C)c1ccccc1`, the outcome was inactive and the inhibition turned out to be 76.8%. Under setting [1], this compound returned a half-inhibitory concentration (IC50) of 31 µM. The half-maximal inhibitory concentration (IC50) (CXCR6, run 1, dose range 2) was 33.1 µM. The compound also displayed an IC50 (CXCR6, run 2, dose range 2) of 29 µM.

`Cc1c(N=Nc2c(O)[nH]c(=S)[nH]c2=O)c(=O)n(-c2ccccc2)n1C`: the result was inactive and the inhibition was determined as 107%. The IC50 under setting [1] was determined as 22.5 µM. For the same compound, the IC50 (CXCR6, run 1, dose range 2) came to 16.4 µM. The 50% inhibitory concentration (IC50) (CXCR6, run 2, dose range 2) was found to be 28.6 µM.

For `CCc1ccc(NC(=O)c2nc(S(=O)(=O)Cc3ccccc3)ncc2Cl)cc1`, the result was inactive and the inhibition amounted to 111%. For the same compound, the IC50 under setting [1] turned out to be 12.1 µM. For the same compound, the IC50 (CXCR6, run 1, dose range 2) amounted to 11 µM. This compound also displayed an IC50 (CXCR6, run 2, dose range 2) of 13.1 µM.

As for `Cc1ccc(NC(=O)C2=C(c3ccccc3)S(=O)(=O)CCS2(=O)=O)cc1`, the outcome was inactive and the inhibition was 108%. In addition, the IC50 under setting [1] amounted to 16.9 µM. Moreover, under “CXCR6, run 1, dose range 2”, the half-inhibitory concentration (IC50) was determined as 16.4 µM. The same compound displayed a concentration for half-maximal inhibition (IC50) (CXCR6, run 2, dose range 2) of 17.4 µM.

Consider `CC(=O)Nc1ccc2c(c1)Cc1cc(N3C(=O)C=CC3=O)ccc1-2`, for which the result was inactive and the inhibition came out at 112%. Further, under setting [1], the IC50 worked out at 14.8 µM. Also, the IC50 (CXCR6, run 1, dose range 2) amounted to 15.3 µM. Further, for the setting “CXCR6, run 2, dose range 2”, the half-maximal inhibitory concentration (IC50) was 14.3 µM.

`O=[N+]([O-])c1ccc(N/N=C/c2sc(N3CCOCC3)nc2-c2ccccc2)c(S(=O)(=O)Nc2ccccc2Cl)c1`: the result was inactive and the inhibition was 95.7%. Besides, under setting [1], the IC50 amounted to 27.6 µM. Further, the half-maximal inhibitory concentration (IC50) (CXCR6, run 1, dose range 2) stood at 27.6 µM. For the setting “CXCR6, run 2, dose range 2”, this compound showed an IC50 above 79 µM.

In the case of `CCOC(=O)C1=C(C)NC2=C(C(=O)CC(c3cccs3)C2)C1c1cccs1` (stereo not given), the outcome was inactive and the inhibition amounted to 70.4%. Under setting [1], this compound yielded a concentration for half-maximal inhibition (IC50) of 24 µM. For the same compound, the IC50 (CXCR6, run 1, dose range 2) was 26.3 µM. The IC50 (CXCR6, run 2, dose range 2) is 21.6 µM.

On to `COc1cc(/C=C/C(O)=C/C(=O)/C=C/c2ccc(O)cc2)ccc1O`, for which the outcome was inactive and the inhibition was 98.4%. For the same compound, the half-inhibitory concentration (IC50) under setting [1] came out at 39.4 µM. For the setting “CXCR6, run 1, dose range 2”, this compound showed an IC50 of 40.1 µM. Further, for the setting “CXCR6, run 2, dose range 2”, the IC50 came out at 38.7 µM.

Usually IC50 stands for the midpoint of a concentration-inhibition curve. Low values mean inhibition by little substance, high ones a need for much substance. As a reminder, the inhibition is the change of the read-out against control, counted positive when it falls.

Values taken from PubChem BioAssay AID624129 (Sanford-Burnham Center for Chemical Genomics, 2012).
